Data: US12642794B2, “Dose regimens for use of LY3154207 in the treatment of dopaminergic CNS disorders” (Eli Lilly and Company, priority 2018, dated 2026)
“Also recorded” adds a separate entry of the source. Like-named read-outs stand apart in the source and are kept apart here.

Columns and labels:
[1] = HBEC Part A pharmacokinetics, healthy subjects; format: in vivo, human; settings: for CLss/F / RAAUC(0-24) (accumulation ratio Day 14:Day 1) / RACmax (accumulation ratio Day 14:Day 1) / Cmax / AUC(0-t) / CL renal: geometric mean; for Cmax / AUC(0-t) / Tmax / CL renal: human, in vivo, oral; for AUC(0-t): read-out: AUC(0-24); for Tmax: read-out: tmax, median; for CL renal: read-out: CLr (renal clearance) (converted)
Experimental: In this randomized, double-blind, placebo-controlled, multiple ascending dose, parallel-group study, HBEC, healthy subjects (Part A) and participants with PD (Part B) received once-daily doses of LY3154207 (15, 30, 75, or 150 mg in Part A and up to 75 mg in Part B) or placebo for 14 days, as illustrated in FIG. 3.
Study outcomes included 24-hour ambulatory blood pressure monitoring (ABPM), treatment-emergent adverse events (TEAEs), and PK assessments in both healthy subjects and participants with PD, as well as Movement Disorder Society-United Parkinson's Disease Rating Scale (MDS-UPDRS) assessments to evaluate the impact of LY3154207 on motor function in participants with PD. The objective was to explore the safety, tolerability, and pharmacokinetics (PK) of multiple oral daily dosing of LY3154207 in healthy subjects (Part A) and in participants with PD (Part B).

[2] = HBEA plasma pharmacokinetics after single doses; format: in vivo, human
Description: HBEA is a single ascending dose study of a D1 receptor positive allosteric modulator LY3154207 in healthy volunteers. Study HBEA aims to determine the safety, tolerability, and peripheral and central pharmacokinetics (PK) of single ascending doses of LY3154207 in healthy subjects. Study HBEB aims to evaluate the effect of single-dose LY3154207 on sleep latency in sleep-deprived healthy male subjects as measured by a multiple sleep latency test (MSLT). HBEA was a Phase 1, 2-part, randomized, double-blind, placebo-controlled study in healthy males or females. Part A has a 3-period crossover design with 2 alternating, single-dose escalating cohorts, and subjects were randomized to LY3154207 (n=6) or placebo (n=3) in each cohort in each dosing period. Part B has a single-period, single-dose, 2-cohort design with cerebrospinal fluid (CSF) sampling, and subjects were randomized to LY3154207 (n=8) or placebo (n=4) in each cohort.
This is a phase 1, SAD, crossover design of LY3154207 in healthy subjects conducted in 2 alternating cohorts with dose escalation. Subjects are dosed at 25 mg, 75 mg, 100 mg, 150 mg and 200 mg or placebo. Safety parameters assessed include adverse events (AEs), safety laboratories, vital signs, ambulatory blood pressure monitoring (ABPM) and electrocardiogram (ECG). Subjects provide blood samples after dosing to measure plasma concentrations of LY3154207 for assessment of PK.
HBEA Part B is a study of Cerebrospinal fluid (CSF) and plasma pharmacokinetic (PK) profile following a single dose of LY3154207 in healthy volunteers. The objective of the study is to determine the CSF and plasma PK profile of LY3154207 in a single dose study m healthy volunteers. This study consisted of 2 cohorts in a single-dose, single-period, placebo-controlled, randomized, double-blind, parallel-group study. Subjects were randomized to 25 mg and 75 mg and underwent serial blood and CSF sampling at 2 hours pre-dose and 24 hours post-dose to measure concentrations of LY3154207. Twenty-four subjects enrolled and all completed the study. […] Concentrations of LY3154207 in CSF were detectable up to 8 h after a dose of 25 mg and up to 24 hours after a dose of 75 mg. At each dose about 1% of the total LY3154207 exposure in plasma was available in CSF. At 25 mg and 75 mg, central penetration of LY3154207 was confirmed by measurement of LY3154207 in CSF supporting its use according to the dosing regimens of the present invention in dopaminergic CNS disorders.

accumulation upon repeated dosing [1]: minimal accumulation | CLss/F ([1]; Day 14, LY 15 mg (N = 9)): 30.5 L/h | CLss/F ([1]; Day 14, LY 30 mg (N = 9)): 24.2 L/h | CLss/F ([1]; Day 14, LY 75 mg (N = 9)): 33.8 L/h | CLss/F ([1]; Day 14, LY 150 mg (N = 9)): 34.5 L/h | RAAUC(0-24) (accumulation ratio Day 14:Day 1) ([1]; LY 15 mg (N = 9)): 1.34 | RACmax (accumulation ratio Day 14:Day 1) ([1]; LY 15 mg (N = 9)): 1.18 | RAAUC(0-24) (accumulation ratio Day 14:Day 1) ([1]; LY 30 mg (N = 9)): 1.03 | RACmax (accumulation ratio Day 14:Day 1) ([1]; LY 30 mg (N = 9)): 1.12 | RAAUC(0-24) (accumulation ratio Day 14:Day 1) ([1]; LY 75 mg (N = 9)): 0.99 | RACmax (accumulation ratio Day 14:Day 1) ([1]; LY 75 mg (N = 9)): 1.13 | RAAUC(0-24) (accumulation ratio Day 14:Day 1) ([1]; LY 150 mg (N = 9)): 0.93 | RACmax (accumulation ratio Day 14:Day 1) ([1]; LY 150 mg (N = 9)): 0.92 | Cmax ([1]; Day 14, LY 15 mg (N = 9)): 66.2 ng/mL | AUC(0-t) ([1]; Day 14, LY 15 mg (N = 9)): 492 ng·h/mL | Tmax ([1]; Day 14, LY 15 mg (N = 9)): 2 h | Cmax ([1]; Day 14, LY 30 mg (N = 9)): 149 ng/mL | AUC(0-t) ([1]; Day 14, LY 30 mg (N = 9)): 1240 ng·h/mL | CL renal ([1]; Day 14, LY 30 mg (N = 9)): 0.06 mL/min | Tmax ([1]; Day 14, LY 30 mg (N = 9)): 2 h | Cmax ([1]; Day 14, LY 75 mg (N = 9)): 307 ng/mL | AUC(0-t) ([1]; Day 14, LY 75 mg (N = 9)): 2220 ng·h/mL | CL renal ([1]; Day 14, LY 75 mg (N = 9)): 0.04 mL/min | Tmax ([1]; Day 14, LY 75 mg (N = 9)): 2 h | Cmax ([1]; Day 14, LY 150 mg (N = 9)): 500 ng/mL | AUC(0-t) ([1]; Day 14, LY 150 mg (N = 9)): 4350 ng·h/mL | CL renal ([1]; Day 14, LY 150 mg (N = 9)): 0.0567 mL/min | Tmax ([1]; Day 14, LY 150 mg (N = 9)): 3 h | apparent clearance (CL/F) ([2]; across doses): 19 to 25 L/h | Tmax ([2]; both sexes, human, plasma, single doses, read-out: median tmax): 2 to 3 h | half-life ([2]; both sexes, human, plasma, single doses, read-out: terminal half-life (t1/2) (converted)): ~12 h | renal elimination ([2]; in vivo): negligible renal elimination | administered dose excreted in urine ([2]; single doses): 0.02%
SMILES: C[C@H]1c2cccc(CCC(C)(C)O)c2C[C@H](CO)N1C(=O)Cc1c(Cl)cccc1Cl [LY3154207]
linearity of PK ([2]; plasma, 25-200 mg): linear PK profile; also recorded: linear plasma PK | dose proportionality of Cmax and AUC ([2]; plasma, 25 to 200 mg): proportional with dose; also recorded: increased in proportion to LY3154207 dose
